Laboratory results taken from patent US10195201B2, “Heteroaryl-pyrimidinone compounds as PDE2 inhibitors” (Merck Sharp & Dohme Corp., priority 2015, dated 2019).
Read-outs that look alike come from different tables or passages of the source.

Biological target: Rhesus PDE2A3 (Macaca mulatta, UniProt B3VTJ2)
Assay: PDE2 fluorescence polarization (IMAP FP) inhibition assay, rhesus enzyme
Assay type: biochemical, rhesus macaque
Protocol: The activity of the compounds in accordance with the present invention as PDE2 inhibitors may be readily determined using a fluorescence polarization (FP) methodology (Huang, W., et al., J. Biomol Screen, 2002, 7: 215).
In a typical experiment the PDE2 inhibitory activity of the compounds of the present invention was determined in accordance with the following experimental method. Rhesus PDE2A3 was amplified from rhesus macaque brain cDNA (Biochain Institute, Hayward, Calif.) using primers based on human PDE2A sequence (accession NM_002599.3) where the forward primer containing a Kozak consensus was 5′-[…]-3′ and the reverse primer was 5′-[…]-3′. Amplification with Easy-A High-Fidelity PCR cloning enzyme (Stratagene, La Jolla, Calif.) was 95° C. for 2 minutes followed by thirty three cycles of 95° C. for 40 seconds, 52° C. for 30 seconds, and 72° C. for 2 minutes 48 seconds. Final extension was 72° C. for 7 minutes. The PCR product was TA cloned into pcDNA3.3-TOPO (Invitrogen, Carlsbad, Calif.) according to standard protocol. A consensus sequence was developed from multiple clones and then deposited into GenBank (EU812167). AD293 cells (Stratagene, La Jolla, Calif.) with 70-80% confluency were transiently transfected with rhesus PDE2A3/pcDNA3.3-TOPO using Lipofectamine 2000 according to manufacturer specifications (Invitrogen, Carlsbad, Calif.). Cells were harvested 48 hours post-transfection and lysed by sonication (setting 3, 10×5 sec pulses) in a buffer containing 20 mM HEPES pH 7.4, 1 mM EDTA and Complete Protease Inhibitor Cocktail Tablets (Roche, Indianapolis, Ind.). Lysate was collected by centrifugation at 75,000×g for 20 minutes at 4° C. and supernatant utilized for evaluation of PDE2 activity. The fluorescence polarization assay for cyclic nucleotide phosphodiesterases was performed using an IMAP® FP kit supplied by Molecular Devices, Sunnyvale, Calif. (product # R8139). […] Assays were performed at room temperature in 384-well microtiter plates with an incubation volume of 20.2 μL. Solutions of test compounds were prepared in DMSO and serially diluted with DMSO to yield 8 μL of each of 10 solutions differing by 3-fold in concentration, at 32 serial dilutions per plate. […] 0% of inhibition is determined by using DMSO (1% final concentrations).
A Labcyte Echo 555 (Labcyte, Sunnyvale, Calif.) is used to dispense 200 nL from each well of the titration plate to the 384 well assay plate. Ten microliters of a solution of enzyme (1/2000 final dilution from aliquots; sufficient to produce 20% substrate conversion) was added to the assay plate. Next 10 uL of a separate solution of the substrate FAM-labeled cAMP (50 nM final concentration product # R7506 from Molecular Devices) and the activator cGMP (1 uM final concentration), prepared in the assay buffer (10 mM Tris HCl, pH 7.2, 10 mM MgCl2, 0.05% NaN3 0.01% Tween-20, and 1 mM DTT) was added to the assay plate and shaken to mix. The reaction is allowed to proceed at room temperature for 60 minutes. A binding solution is then made from the kit components, comprised of 80% Solution A, 20% Solution B and binding reagent at a volume of 1/600 the total binding solution. The enzymatic reaction is stopped by addition of 60 μL of the binding solution to each well of the assay plates and the plates are sealed and shaken for 30 seconds. The plate was incubated at room temperature for at least one hour prior to determining the fluorescence polarization (FP). The parallel and perpendicular fluorescence of each well of the plate was measured using a Tecan Genios Pro plate reader (Tecan, Switzerland) or Perkin Elmer EnVision™ plate reader (Waltham, Mass.). Fluorescence polarization (mP) was calculated from the parallel (S) and perpendicular (P) fluorescence of each sample well and the analogous values for the median control well, containing only substrate (So and Po), using the following equation: Polarization (mP)=1000*(S/So−P/Po)/(S/So+P/Po).

[1] = LabA, read-out: rhPDE2 Ki (nM) LabA
[2] = LabB, read-out: rhPDE2 Ki (nM) LabB

Chain of Rhesus PDE2A3 (B3VTJ2 1-941): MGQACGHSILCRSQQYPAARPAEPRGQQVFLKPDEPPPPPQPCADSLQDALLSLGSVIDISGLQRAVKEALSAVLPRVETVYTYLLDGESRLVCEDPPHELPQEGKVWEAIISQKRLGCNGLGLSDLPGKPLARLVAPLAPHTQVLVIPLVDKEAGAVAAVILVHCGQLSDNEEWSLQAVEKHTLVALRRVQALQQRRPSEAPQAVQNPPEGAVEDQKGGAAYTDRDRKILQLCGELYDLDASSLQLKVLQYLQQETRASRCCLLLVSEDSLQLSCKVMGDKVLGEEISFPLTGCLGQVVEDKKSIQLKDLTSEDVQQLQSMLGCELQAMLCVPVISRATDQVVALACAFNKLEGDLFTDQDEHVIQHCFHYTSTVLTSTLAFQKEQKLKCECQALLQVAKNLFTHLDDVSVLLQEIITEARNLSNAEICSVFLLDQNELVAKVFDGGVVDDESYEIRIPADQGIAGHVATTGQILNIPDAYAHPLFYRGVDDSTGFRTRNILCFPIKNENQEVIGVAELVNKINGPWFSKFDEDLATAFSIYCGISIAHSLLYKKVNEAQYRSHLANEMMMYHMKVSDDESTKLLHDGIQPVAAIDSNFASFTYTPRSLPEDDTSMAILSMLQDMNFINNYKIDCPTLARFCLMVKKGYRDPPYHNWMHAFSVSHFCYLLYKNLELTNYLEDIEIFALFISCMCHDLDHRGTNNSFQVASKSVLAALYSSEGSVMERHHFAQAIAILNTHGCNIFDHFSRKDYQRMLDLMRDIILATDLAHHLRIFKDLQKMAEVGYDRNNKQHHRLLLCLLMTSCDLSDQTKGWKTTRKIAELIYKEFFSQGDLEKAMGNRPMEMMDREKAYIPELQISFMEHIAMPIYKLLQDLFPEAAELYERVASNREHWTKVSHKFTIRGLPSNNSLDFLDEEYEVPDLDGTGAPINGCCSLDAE

Structure (SMILES)	Ki [1]	Ki [2]
Cc1nc(-c2cn(C(C)c3ccc(C(F)(F)F)cc3)cn2)cc(=O)[nH]1 (single isomer, unassigned) [Example 16, (R)- or (S)-2-methyl-6-(1-(1-(4-(trifluoro-methyl)phenyl)ethyl)-1H-imidazol-4-yl) pyrimidin-4 (3H)-one]	340 nM	–
Cc1nc(-c2nc(C(C)c3ccc(C(F)(F)F)cc3)cs2)cc(=O)[nH]1 (stereo not drawn) [Example 3, 2-Methyl-6-(4-(1-(4-(trifluoromethyl)phenyl)ethyl)thiazol-2-yl)pyrimidin-4(3H)-one]	532 nM	–
Cc1nc(-c2cncc([C@@H](C)c3ccc(C(F)(F)F)cc3)c2)cc(=O)[nH]1 (single isomer, unassigned) [Example 23]	> 1000 nM	–
Cc1nc(-c2cncc([C@@H](C)c3ccc(C(F)(F)F)cc3)c2)cc(=O)[nH]1 (single isomer, unassigned) [Example 24]	826 nM	–
Cc1nc(-c2nnc([C@H](C)c3ccc(C(F)(F)F)cc3)o2)cc(=O)[nH]1 (single isomer, unassigned) [Example 10]	470 nM	699 nM
CCC(c1ccc(C(F)(F)F)cc1F)n1cnc(-c2cc(=O)[nH]c(C)n2)c1 (stereo not drawn) [Example 20, 6-(1-(1-(2-Fluoro-4-(trifluoromethyl)phenyl)propyl)-1H-imidazol-4-yl)-2-methylpyrimidin-4(3H)-one]	–	123 nM
Cc1nc(-c2cn(C(c3ccc(C(F)(F)F)cc3F)C(C)C)cn2)cc(=O)[nH]1 (stereo not drawn) [Example 21, 6-(1-(1-(2-Fluoro-4-(trifluoromethyl)phenyl)-2-methylpropyl)-1H-imidazol-4-yl)-2-methylpyrimidin-4(3H)-one]	–	110 nM
Cc1nc(-c2cn([C@H](C)c3ccc(C(F)(F)F)cc3F)cn2)cc(=O)[nH]1 (single isomer, unassigned) [Example 14]	298 nM	–
Cc1nc(-c2ncc(C(C)c3ccc(C(F)(F)F)cc3)[nH]2)cc(=O)[nH]1 (stereo not drawn) [Example 13, 2-Methyl-6-(5-(1-(4-(trifluoromethyl)phenyl)ethyl)-1H-imidazol-2-yl)pyrimidin-4(3H)-one]	868 nM	631 nM
Cc1nc(-c2cc(C(C)c3ccc(C(F)(F)F)cc3)ccn2)cc(=O)[nH]1 (stereo not drawn) [Example 22, 2-methyl-6-(4-(1-(4-(trifluoromethyl)phenyl)ethyl)pyridin-2-yl)pyrimidin-4(3H)-one]	920 nM	868 nM
Cc1nc(-c2noc(C(C)c3ccc(C(F)(F)F)cc3)n2)cc(=O)[nH]1 (stereo not drawn) [Example 11, 2-Methyl-6-(5-(1-(4-(trifluoromethyl)phenyl)ethyl)-1,2,4-oxadiazol-3-yl)pyrimidin-4(3H)-one]	1080 nM	1750 nM

More lines, now with the values ahead:

Ki [1]	Ki [2]	Structure (SMILES)
1710 nM	1660 nM	Cc1nc(-c2cncc(C(C)c3ccc(C(F)(F)F)cc3)n2)cc(=O)[nH]1 (stereo not drawn) [Example 29, 2-Methyl-6-(6-(1-(4-(trifluoromethyl)phenyl)ethyl)pyrazin-2-yl)pyrimidin-4(3H)-one]
12900 nM	–	Cc1nc(-c2cncc(C(O)c3ccc(C(F)(F)F)cc3)c2)cc(=O)[nH]1 (stereo not drawn) [Example 25, 6-(5-(Hydroxy(4-(trifluoromethyl)phenyl)methyl)pyridin-3-yl)-2-methylpyrimidin-4(3H)-one]
1810 nM	–	Cc1nc(-c2cncc(C(C)(O)c3ccc(C(F)(F)F)cc3)c2)cc(=O)[nH]1 (stereo not drawn) [Example 26, 6-(5-(1-Hydroxy-1-(4-(trifluoromethyl)phenyl)ethyl)pyridin-3-yl)-2-methylpyrimidin-4(3H)-one]
2880 nM	–	Cc1nc(-c2ccnc(C(C)(O)c3ccc(C(F)(F)F)cc3)c2)cc(=O)[nH]1 (stereo not drawn) [Example 28, 6-(2-(1-hydroxy-1-(4-(trifluoromethyl)phenyl)ethyl)pyridin-4-yl)-2-methylpyrimidin-4(3H)-one]
1270 nM	–	Cc1nc(-c2ccnc(C(C)c3ccc(C(F)(F)F)cc3)c2)cc(=O)[nH]1 (stereo not drawn) [Example 27, 2-Methyl-6-(2-(1-(4-(trifluoromethyl)phenyl)ethyl)pyridin-4-yl)pyrimidin-4(3H)-one]
